Laboratory results as given in patent US20060160883A1, “Regulation of immune system action in mammals through use of a multi-tiered model of immune system function” (priority 2005, published 2006).

Tested on: osteosarcoma (bone cancer) and chondrosarcoma (cartilage cancer)
Assay: Treatment of one dog (Maggie, 12 year old Border Collie) with bone and cartilage cancer after leg amputation
Type: in vivo
Text: The mammal involved is Maggie, a 12 year old, neutered female Border Collie. • 1) The IDO-producing diseases or conditions in this case are osteosarcoma (bone cancer) and chondrosarcoma (cartilage cancer). • 2) There are three parts to treatment in this model. There must be a choice or choices from Treatment Part A. There may be choice(s) from Treatment Part B and/or Part C. • A) The goal of Treatment Part A is to “turn off” IDO and/or its actions. The choice I used in this case was an antioxidant to compete with IDO for O2. • The antioxidant I used was ascorbic acid in the form of Ester-C, a licensed trademark of Zila Neutraceuticals, Inc. It is manufactured under U.S. Pat. Nos. 4,822,816 and 5,070,085. It was purchased at Sam's Club and the bottle contained 500 500 mg caplets with Rose Hips.
The doseage was bowel tolerance level which in this case was 3-4½ grams per day. • B) The goal of Treatment Part B is to build up the immune system. […] This is not, however, seen as a cure for either type of cancer she had. • Another choice was pain medication. • Yet another choice was antibiotics after the surgery to prevent infection while she healed. • My other treatment of choice was Vitamin D3. I purchased KAL brand D-400. (This stands for 400 IUs of Vitamin D3). I purchased them at several health food stores. There were 100 softgels per bottle and each softgel contained 400 IUs of D3 as well as 600 IUs of Vitamin A. They were manufactured by Nutraceutical Corp. for Makers of KAL, Inc. • Maggie's dosage most of the time was 6 softgels (2400 IUs) per day. For one week in November, she had no Vitamin D3, then after that, 10 (4000 IUs) per day for a short time, then 8 (3200 IUs) per day. • The total cost per month for Ester-C and D-400 was approximately $25.
Also, on July 12, she started taking Vitamin D3. (She started with 2 per day, and by July 14th, was taking 6 per day. She took 3 in the morning and 3 at night from then until October 30.) The hope was that the D3 could buy some time.
August 25, in addition to Vitamin D3, Maggie started taking Vitamin C (Ester-C caplets). That evening, she was given 3 caplets (one and one half grams).
The morning of August 26, she was given 4 caplets (2 grams). The goal was to find her bowel tolerance level.
Treatment resumed, this time with 9 softgels of Vitamin D3 per day and 9 caplets of Ester-C per day. That afternoon, […] developed a fever that lasted until afternoon of the next day.
A week later, she was taking 7 Ester-C and 10 D3 per day, but the D3 was dropped to 8 per day by November 21.

SMILES | overall effect of the treatment on the cancer (autopsy findings) (Ester-C plus Vitamin D3 after amputation, only microscopic cells and clusters in liver, bone tumor area being replaced) | alkaline phosphatase level (blood test) (November 3, Ester-C at bowel tolerance since August 25 in addition to Vitamin D3 (D3 stopped October 30), before treatment 3175) | alkaline phosphatase level (blood test) (November 5, Vet Emergency Hospital (different lab), Ester-C plus Vitamin D3 treatment) | lung and lower abdominal x-rays, sign of cancer (November 5, Ester-C plus Vitamin D3 treatment) | autopsy, cancer in lungs (after death December 18, Ester-C plus Vitamin D3 treatment) | alertness, behaviour (evening of August 26, one day after start of Ester-C (3 then 4 caplets) in addition to Vitamin D3) | alkaline phosphatase level (blood test) (August 15, Vitamin D3 6 softgels (2400 IUs) per day since July 12 after amputation, level before treatment 3175, normal range 5-131) | lung X-rays (August 15, on Vitamin D3 after amputation) | signs of Vitamin D3 overdose (blood test) (November 3, after 6 softgels (2400 IUs) per day July 14 to October 30) | calcium deposits in organs on x-ray (a symptom of D3 overdose) (November 5)
O=C1O[C@H]([C@@H](O)CO)C(O)=C1O [Vitamin C, ascorbic acid] | seemed to be working on the cancer | 2230 | 1669 | no sign of cancer | no cancer in her lungs | alert and awake | – | – | – | –
C=C1CC[C@H](O)C/C1=C/C=C1\CCC[C@]2(C)[C@@H]([C@H](C)CCCC(C)C)CC[C@@H]12 [Vitamin D3] | – | – | – | – | – | – | 3113 | no lung cancer tumors | no signs of Vitamin D3 overdose | no calcium deposits in any organs
